Experimental data as given in US8129340B2, “Inhibitors of protein phosphatase 1, GADD34 and protein phosphatase 1/GADD34 complex, preparation and uses thereof” (Institut Gustave Roussy, priority 2006, dated 2012).
Peptide text beside a SMILES is read from it. * marks the point of attachment. Cbz = O=C(OCc1ccccc1)*; CH2F = FC*

How the values were obtained:
CT26 colon cancer cells = experiment: In vivo anti-cancer vaccination: treated tumour cells in one flank and live tumour cells in opposite flank simultaneously; parameters: species or system BALB/c mice
Experimental: FIG. 4A: In vivo anti-cancer vaccination depends on CRT. CT26 colon cancer cells were transfected with the indicated siRNAs, then treated with rCRT and/or mitoxantrone (as in FIG. 3D) and the anti-tumour response was measured by simultaneously challenging BALB/c mice with mitoxantrone treated tumour cells in one flank and untreated live tumour cells in the opposite flank.
FIG. 4D: CRT-mediated amelioration of the immune response against etoposide-treated tumour cells. CT26 cells were treated for 24 h with etoposide (or PBS) and rCRT was optionally absorbed to the cell surface (inserts), followed by simultaneous injection of the etoposide ±rCRT-treated tumour cells and live tumour cells in opposite flanks and monitoring of tumour growth.
(§1) Tumours were evaluated weekly, using a caliper.

CT26 tumour cells [1] = experiment: Local immune response: tumour cells injected into foot pad, IFN-γ secretion by draining popliteal lymph node cells (ELISA); assay type: in vivo, Balb/c mice; conditions: cells injected into the foot pad
Experimental: FIG. 4B: Priming of T cell responses depending on CRT. CT26 tumour cells were left untransfected or transfected with the indicated siRNAs, then treated with medium alone, mitomycin C or mitoxantrone and injected into the right food pad of Balb/c mice. Five days later, mononuclear cells from the draining popliteal lymph nodes were challenged with freeze-thawed CT26 cells, and IFN-γ secretion was assessed at 72 hrs.
FIG. 4C: Exogenous supply of CRT enhances the immunogenicity of CRT-negative dying cells. CT26 cells lacking CRT expression after depletion of CRT with a siRNA and mitoxantrone treatment or after mitomycin treatment were coated with rCRT (inserts) and then injected in the food pad, followed by assessment of the IFN-γ secretion by cells from the draining lymph nodes as in FIG. 4B.
as §1

CT26 cells = experiment: Phagocytosis of CT26 tumour cells by dendritic cells (FACS, double positive cells); assay type: cell-based, BALB/c mice; conditions: cells transfected with siRNA
Experimental: FIG. 3A, FIG. 3B: Correlation between tumour cell phagocytosis and CRT exposure. Tumour cells labelled with Cell Tracker Green were cultured with CD11c-expressing DC and the percentage of DC taking up tumour cells was determined (A) and correlated with the CRT surface exposure (B), measured as in FIG. 2E.
Mitoxantrone-treated or control cells were incubated with a blocking chicken anti-CRT antibody, followed by detection of phagocytosis by CD.
Cells were transfected with the indicated siRNAs and optionally treated with rCRT, followed by immunoblot (FIG. 3D) detection of surface CRT (FIG. 3E) and phagocytosis by DC (FIG. 3F). Results are triplicates (X±SD) and representative of three independent experiments. * denotes statistically significant differences using the Student t′ test at p<0.001.
BM cells were flushed from the tibias and femurs of BALB/c mice with culture medium composed of RPMI 1640 medium (Invitrogen Life Technologies) supplemented with 10% heat-inactivated FBS (Invitrogen), sodium pyruvate, 50 μM 2-ME (Sigma), 10 mM HEPES (pH 7.4), and penicillin/streptomycin (Invitrogen). After one centrifugation, BM cells were resuspended in Tris-ammonium chloride for 2 min to lyse RBC. After one more centrifugation, BM cells (1×10^6 cells/ml) were cultured in medium supplemented with 100 ng/ml recombinant mouse FLT3 ligand (R&D systems) in 6-well plates (Costar Corning). After 7 days, the non-adherent and loosely adherent cells were harvested with Versene, washed and transferred in 12-well plates (1.5×10^6 cells/plate) for cocultures with tumour cells.
In 12-well plates, […] adherent CT26 cells were labelled with Celltracker Green (Calbiochem) and then incubated with drugs. In some experiments viable CT26 were coated with 2 μg/10^6 cells of chicken anti-CRT antibody (ABR affinity bioreagents) or an isotype control for 30 min prior to washing and feeding to dendritic cells Cs. Alternatively CT26 cells were coated with 2 μg/10^6 cells of rCRT on ice for 30 min and washed twice prior to addition to dendritic cells. Cells were then harvested, washed three times with medium supplemented with FBS and cocultured with immature DC for 2 hours at a ratio of 1:1 and 1:5. At the end of the incubation, cells were harvested with versene, pooled with non-adherent cells present in the supernatant, washed and stained with CD11c-FITC antibody. Phagocytosis was assessed by FACS analysis of double positive cells. Phagocytic indexes refer to the ratio between values obtained at 4° C. and values obtained at 37° C. of co-incubation between DC and tumour cells.

CT26 tumour cells [2] = experiment: Anti-tumour vaccination: dying treated CT26 cells injected in one flank, later challenge with live tumour cells; assay type: in vivo, BALB/c mice
cell surface CRT = experiment: Fluorescence detection of cell surface CRT on CT26 cells (cytofluorometry); assay type: cell-based, murine; conditions: agent alone; for induction of ecto-CRT and/or ecto-Erp57: tumour cells
Experimental: FIG. 1SA, FIG. 1SB: Kinetics of CRT exposure. CT26 cells were treated with mitoxantrone for the indicated period, followed by immunofluorescence staining with a CRT-specific antibody and cytofluorometric analysis.
FIG. 2E: Correlation between CRT exposure and immunogenicity. The surface exposure of CRT was determined by immunofluorescence cytometry while gating on viable (propidium iodine-negative) cells (inserts) and was correlated with the immunogenicity of cell death (as determined in FIG. 1). CO, control; Tg, thapsigargin; Tu, tunicamycin.
FIG. 5E: Kinetics of CRT exposure determined by FACS analysis after incubation of cells with the indicated agents.
FIG. 5F-FIG. 5G: PP1/GADD34 inhibitors render cell immunogenic via CRT. Tumour cells were first transfected with a control siRNA or a CRT-specific siRNA and then treated in vitro with etoposide, alone or in combination with PP1/GADD34 inhibitors. […] The results represent the % of tumour free mice (comprising a total of 12 to 18 mice per group).
CT26 cells (on a glass slide or in 12-well plates) were first washed with FACS buffer (1×PBS, 5% fetus bovine serum, and 0.1% sodium azide) and then incubated with rabbit anti-mouse CRT antibody (1:100, Stressgen) in FACS buffer at 4° C. for 30 min. Cells reacted with anti-rabbit IgG (H+L) Alexa fluor 488-conjugates (1:500) in FACS buffer at 4° C. for 30 min. After washing three times with FACS buffer, surface CRT was detected by cytofluorometric analysis on a FACS Vantage. In some experiments, cells were fixed with 4% paraformaldehyde, counterstained with Hoechst (2 μM; Sigma), followed by fluorescence microscopic assessment with a Leica IRE2 microscope equipped with a DC300F camera.

CT26 tumours [3] = experiment: Intratumoural treatment of established CT26 tumours in immunocompetent mice; assay type: in vivo, BALB/c mice (wild type); conditions: mouse, in vivo
CT26 tumours [4] = experiment: Intratumoural treatment of established CT26 tumours in immunodeficient mice; assay type: in vivo, athymic nu/nu Balb/c mice; conditions: mouse, in vivo
calreticulin [5] = experiment: Calreticulin exposure by immunofluorescence staining and flow cytometry, HCT116 cells; assay type: cell-based, human; conditions: 2 hours
Experimental: (§2) HCT116 cells (FIG. 7A) or CT26 cells (FIG. 7B) were cultured in complete mediums supplemented with 10% fetal calf serum alone or in the presence of the control peptide (VKKKKIKREIKI-lkaravafsekv) (SEQ ID NO: 17) or the PP1/GADD34 inhibitory peptide (VKKKKIKREIKI-lkarkvrfsekv, SEQ ID NO: 4. denominated PP1 peptide) for 2 hours. Cells were washed twice with PBS and fixed in PFA (4% w/v) for 5 min. Cells were stained with an antibody against calreticulin (pAb from Abeam, ab2907) at 1:200 dilution or isotype control, in staining buffer (PBS, 1% FCS) for 30 min on ice, followed by washing. An anti-rabbit Alexa fluor 488 immunoglobulin conjugate (Molecular Probes-Invitrogen) diluted at 1:500 was added for an additional 30 min on ice before washing and analysed by flow cytometry (FACScan, Becton Dickinson). Propidium Iodide (50 μg/ml, Becton Dickinson) was added to the samples to label and exclude permeabilized (dead) cells.

calreticulin [6] = experiment: Calreticulin exposure by immunofluorescence staining and flow cytometry, CT26 cells (peptide test); assay type: cell-based, murine; conditions: 2 hours
Experimental: as §2

[7] = dying CT26 cells treated with agent injected into one flank, live tumour cells in opposite flank 8 days later

Compound: 5′-rCrCrGrCUrGrGrGUrCrGrArAUrCrRrArATT-3′ [CRT-specific siRNA]
- immunogenicity of mitoxantrone-treated CT26 cells (efficacy of anti-tumour vaccination) (CT26 colon cancer cells; cells injected into the flank of Balb/c mice): compromised the immunogenicity of mitoxantrone-treated CT26 cells
- immunogenicity of mitoxantrone-treated CT26 cells (interferon-γ production by T cells from popliteal lymph node) (CT26 tumour cells [1]): compromised the immunogenicity of mitoxantrone-treated CT26 cells
- phagocytosis of anthracyclin-treated tumour cells by DC after siRNA knockdown of CRT (CT26 cells): suppressed the phagocytosis of anthracyclin-treated tumour cells

Compound: CCCCCCCCCCCCC/C=C/[C@@H](O)[C@H](CO)NC(C)=O [C2 ceramide, C2-ceramide]
- immunogenicity of cell death (protection against tumour growth, anti-tumour vaccination) (CT26 tumour cells [2]; [7]): failed to induce immunogenic apoptosis

Compound: CCOc1ccc(-c2nc3ccc(-c4nc5ccc(N6CCN(C)CC6)cc5[nH]4)cc3[nH]2)cc1 [Hoechst 33342]
- immunogenicity of cell death (protection against tumour growth, anti-tumour vaccination) (CT26 tumour cells [2]; [7]): failed to induce immunogenic apoptosis

Compound: COC(=O)C[C@H](NC(=O)[C@H](C)NC(=O)[C@@H](NC(=O)OCc1ccccc1)C(C)C)C(=O)CF [Z-VAD-fmk] (Cbz-Val-Ala-Asp(OMe)-CH2F)
- effect on immunogenicity of doxorubicin-elicited cell death (CT26 tumour cells [2]; combined with doxorubicin): reduces the immunogenicity of doxorubicin-elicited cell death

Compound: C[C@H]1CCC/C=C/[C@@H]2C[C@H](O)C[C@H]2[C@H](O)/C=C/C(=O)O1 [brefeldin, brefeldin A]
- immunogenicity of cell death (protection against tumour growth, anti-tumour vaccination) (CT26 tumour cells [2]; [7]): failed to induce immunogenic apoptosis

Compound: COC[C@@H]([C@H](O)[C@H](O)C(=O)NCC[C@H](C)c1nc(/C=C/C[C@@H]2O[C@]3(C[C@@H](O)[C@@H]2C)O[C@H]([C@H](C[C@H](O)[C@H](C)[C@H](O)[C@H](C)/C=C(C)/C(C)=C/C=C/C(C)=C\C#N)OC)[C@H](OP(=O)(O)O)C3(C)C)co1)N(C)C [calyculin A]
- induction of immunogenic cell death by the inhibitor alone (CT26 tumour cells [2]; without cell death inducer): not sufficient to induce immunogenic cell death
- induction of CRT exposure at the cell surface (cell surface CRT): efficiently induced

Compound: CC[C@@]1(O)C(=O)OCc2c1cc1n(c2=O)Cc2cc3ccccc3nc2-1 [camptothecin]
- immunogenicity of cell death (protection against tumour growth, anti-tumour vaccination) (CT26 tumour cells [2]; [7]): failed to induce immunogenic apoptosis

Compound: COc1cc([C@@H]2c3cc4c(cc3[C@@H](O[C@@H]3O[C@@H]5CO[C@@H](C)O[C@H]5[C@H](O)[C@H]3O)[C@H]3COC(=O)[C@H]23)OCO4)cc(OC)c1O [etoposide]
- immunogenicity of sham-coated etoposide-treated cells (CT26 colon cancer cells; sham-coated cells treated with etoposide): poorly immunogenic
- therapeutic effect of single agent on established tumours, immunocompetent mice (CT26 tumours [3]): no major therapeutic effect
- immunogenicity of cell death (protection against tumour growth, anti-tumour vaccination) (CT26 tumour cells [2]; [7]): failed to induce immunogenic apoptosis
- therapeutic effect of single agent on established tumours, nu/nu mice (CT26 tumours [4]): no major therapeutic effect
- induction of ecto-CRT and/or ecto-Erp57 (cell surface CRT): fail to induce ecto-CRT and/or ecto-Erp57

Compound: CC(=O)[C@]1(O)Cc2c(O)c3c(c(O)c2[C@@H](O[C@H]2C[C@H](N)[C@H](O)[C@H](C)O2)C1)C(=O)c1ccccc1C3=O [idarubicin]
- immunogenicity of cell death (protection against tumour growth, anti-tumour vaccination) (CT26 tumour cells [2]; [7]): elicited immunogenic cell death

Compound: CO[C@@]12[C@H](COC(N)=O)C3=C(C(=O)C(C)=C(N)C3=O)N1C[C@@H]1N[C@@H]12 [mitomycin C]
- therapeutic effect of single agent on established tumours, immunocompetent mice (CT26 tumours [3]): no major therapeutic effect
- immunogenicity of cell death (protection against tumour growth, anti-tumour vaccination) (CT26 tumour cells [2]; mouse, in vivo): failed to induce immunogenic apoptosis
- therapeutic effect of single agent on established tumours, nu/nu mice (CT26 tumours [4]): no major therapeutic effect
- induction of CRT exposure at the cell surface (cell surface CRT): cannot promote CRT exposure on tumor cell surface
- induction of ecto-CRT and/or ecto-Erp57 (cell surface CRT): fail to induce ecto-CRT and/or ecto-Erp57

Compound: C/C=C(/C)C(=O)O[C@H]1C(C)=C2[C@H]([C@@H]1OC(=O)CCCCCCC)[C@@](C)(OC(C)=O)C[C@H](OC(=O)CCC)[C@@]1(O)[C@H]2OC(=O)[C@@]1(C)O [thapsigargin]
- immunogenicity of cell death (protection against tumour growth, anti-tumour vaccination) (CT26 tumour cells [2]; [7]): failed to induce immunogenic apoptosis

Compound: VKKKKIKREIKI-lkaravafsekv (VKKKKIKREIKILKARAVAFSEKV; Artificial sequence including a fragment of GADD34 and a translocation motif) [mutant control peptide]
- exposure of calreticulin, HCT116 cells (calreticulin [5]): did not induce calreticulin exposure
- exposure of calreticulin, CT26 cells (calreticulin [6]): did not induce calreticulin exposure

Compound: tunicamycin
- immunogenicity of cell death (protection against tumour growth, anti-tumour vaccination) (CT26 tumour cells [2]; [7]): failed to induce immunogenic apoptosis
